From patent US20050171194A1, “Enlargement of mucocutaneous or cutaneous organs and sites with topical compositions” (priority 2003, published 2005)
Several values for one entry are separate records, joined by “and”; a condition that tells them apart may be missing. Equal entries are not always repeated. Where two headings read alike, the source gives them in different places.

Legend:
forearm skin = experiment: Forearm skin thickness measured by micrometer calipers after topical application; assay type: in vivo, human; conditions: for % Increase Over (summary of increased skin thickness): 10-35% concentration twice daily on forearm skin, range over 2-13 subjects
Description: Measuring the increase in thickness of the skin was accomplished in accordance with the following procedures. The increased plumpness or skin thickness by topical application of active ingredients of the embodiments is mainly due to increased biosynthesis of dermal components in the skin. The three most important dermal components are glycosaminoglycans (GAGs), collagens and elastic fibers. The increased skin thickness caused by increased biosynthesis of dermal components can be distinguished from that by water retention or edema formation. In the former case, the skin remains thickened for weeks and months after termination of topical application. In the latter case, the increased skin thickness returns to the original skin thickness within days after termination of topical application. • (1) Forearm Skin
The most convenient body area for testing skin thickness is the forearm skin. For example, a test substance in a formulation was topically applied once or twice daily to left or right forearm for 3 to 6 months and the other forearm was untreated or treated with a vehicle control. The skin plumpness or thickness was measured by micrometer calipers as follows. The skin was grasped with a 2×6 cm hinge plate, the internal faces of the hinge were coated with soft cloth to prevent slippage, and manually squeezed to a threshold point when the subject felt tight. Combined skin thickness of two whole-skin layers including thickness of the two hinge leaves was measured with micrometer calipers. Thickness of the two hinge leaves was subtracted to determine the actual thickness of two whole-skin layers. Triplicate measurements on treated site were done and an average number was used for calculation of the skin thickness. […]
Hydroxycarboxylic acids, N-acyl-aldosamines, N-acylamino acids and related compounds at various concentrations were topically applied to forearms of volunteer subjects or patients. As shown in Tables 1-7, the skin plumpness or thickness was increased substantially by the compounds of the present invention. The increased skin thickness was believed to be due to increased biosynthesis of GAGs, collagen and elastic fibers. […]. From the above test results, hydroxycarboxylic acids, N-acyl-aldosamines, N-acylamino acids and related compounds used alone or in combination should be beneficial to plump and pout lips, enhance and firm eyelids, enlarge and augment breasts, elongate and expand penis.
In one of the studies, skin thickness was measured by micrometer calipers as follows: The skin was grasped with a 2×6 cm metal hinge; the internal faces of which were coated with emery cloth to prevent slippage, and manually squeezed to threshold subject discomfort. Combined thickness of two whole-skin layers including thickness of the two hinge leaves was measured with micrometer calipers. Thickness of the two hinge leaves was subtracted to determine the actual thickness of two whole-skin layers. Triplicate measurements on treated sites were conducted and an average number was used for calculation of the skin thickness.

[1] = Antioxidant screen tests: air oxidation of anthralin and hydroquinone
Description: (§1) An antioxidant can be defined as a substance capable of preventing or inhibiting oxidation. The antioxidant property can be readily determined by using any one of the following test methods: prevention or retardation of air oxidation of (a) anthralin, (b) hydroquinone, or (c) banana peel. A freshly prepared anthralin solution or cream is bright yellow, and an air oxidized one is brownish or black. A hydroquinone solution or cream is colorless or white color, and an air oxidized one is brownish or black. A freshly peeled banana peel is light yellow in color and an oxidized one ranges in color from tan, dark tan, brown to brownish black.

eyelids, lips, skin = experiment: Plumping or firming of eyelids, lips and skin, clinical and photographic evaluation; assay type: in vivo, human
Procedure: Standard photographs were taken before and after topical applications of test formulations. Plumping or firming effect was determined by clinical as well as photographic evaluation. It was discovered that hydroxycarboxylic acids, N-acyl-aldosamines, N-acylamino acids and related compounds had substantial effect on plumping or firming the eyelids. Aside from clinical as well as photographic evaluation, eyelids plumping or firming also was determined from the disappearance of certain skin lines on the eyelids skin. When eyelids skin was plumping up, the eyelids skin firmed up or pulled up, and the skin lines became less apparent or disappeared. Therefore, when the skin lines on the eyelids disappeared after topical application of a test formulation, the test substance was judged to have plumping or firming effect on the eyelids. It also was discovered that hydroxycarboxylic acids, N-acyl-aldosamines, N-acylamino acids and related compounds on topical application had firming or plumping up effects on the eyelids skin. […] Increased fullness, volume, contour or the effect of enlarging, expanding, augmenting, enhancing, firming, pouting, plumping or elongating after topical application was measured or determined by clinical as well as photographic evaluations. One of the measurements for breast enlargement or augmentation was by the size of brassiere cup. After topical application of the active ingredient, the subject would feel fullness or greater tightness of their treated breast with increased volume and contour, and there was a need to change and increase the size of the brassiere cup. Thus the enlargement or augmentation of the breast was determined by clinical as well as the increased size of brassiere cup. The plumping, pouting or firming effects on lips and eyelids by topical application of an hydroxycarboxylic acid, N-acyl-aldosamine, N-acylamino acid or related compound was determined by clinical as well as photographic evaluation. The elongation or expanding effect of penis was determined by direct measurement of penis before and after once or twice daily topical application of an hydroxycarboxylic acid, N-acyl-aldosamine, N-acylamino acid or related compound. • (C) Antioxidants

penis = experiment: Direct augmentation of penis, penile circumference by tape measure; assay type: in vivo, human; conditions: 20% solution two to three times daily for six weeks, person
Procedure: The plumping, pouting or firming effects on lips and eyelids by topical application of an hydroxycarboxylic acid, N-acyl-aldosamine, N-acylamino acid or related compound was determined by clinical as well as photographic evaluation. The elongation or expanding effect of penis was determined by direct measurement of penis before and after once or twice daily topical application of an hydroxycarboxylic acid, N-acyl-aldosamine, N-acylamino acid or related compound. • (C) Antioxidants
One test on direct augmentation of penis was carried out as follows. Lactobionic acid 20% solution was prepared by dissolving lactobionic acid 20 g in water 50 ml and propylene glycol 30 ml. A subject, volunteered to test an active ingredient of the present invention to enhance penile enlargement. Each morning for one week prior to treatment penile circumference was measured. Measurements were made with a cloth tailor's tape measure. Penile circumference of the glans region, which included the covering foreskin, ranged from 9.5 cm to 10.5 cm. The above lactobionic acid 20% solution was topically applied two to three times daily on the glans penis including the covering foreskin region for six weeks. Morning measurements were again made daily for one week after treatment was stopped. Penile circumference ranged from 11.5 cm to 13 cm after six weeks of topical treatment with 20% lactobionic acid solution.

[2] = Banana peel air oxidation test (antioxidant property); conditions: 0.1 M, 5 ml, room temperature
Description: as §1

breasts = experiment: Breast enlargement after topical application, clinical evaluation and brassiere cup; assay type: in vivo, human
Procedure: A test formulation containing a hydroxycarboxylic acid, N-acyl-aldosamine, N-acylamino acid or related compound was topically applied once or twice daily to skin or mucus membrane organs or sites such as lips, eyelids, breasts and penis for one to six months. Increased fullness, volume, contour or the effect of enlarging, expanding, augmenting, enhancing, firming, pouting, plumping or elongating after topical application was measured or determined by clinical as well as photographic evaluations. One of the measurements for breast enlargement or augmentation was by the size of brassiere cup. After topical application of the active ingredient, the subject would feel fullness or greater tightness of their treated breast with increased volume and contour, and there was a need to change and increase the size of the brassiere cup. Thus the enlargement or augmentation of the breast was determined by clinical as well as the increased size of brassiere cup.
A subject, applied topically twice daily gluconolactone 15% lotion to their right breast for 3 months. […] At this time, they began treating both breasts. […]

[3] = anthralin, hydroquinone or banana peel air oxidation
[4] = 14% cream twice daily, person, after two months

**Q.** For `O=C(O)C(O)c1ccccc1` (racemic) [DL-Mandelic Acid, 2-henyl-2-hydroxyethanoic acid], which “% Increase Over (summary of increased skin thickness)” value (forearm skin) is on record?
**A.** 22-27%

**Q.** What about the “% Increase Over Control (skin thickness)” value (forearm skin; 30% solution, twice daily on forearm skin, 4 months, control = opposite forearm, one subject) of the same compound?
**A.** 22% and 27%

**Q.** With `O=C(O)CC(O)C(=O)O` (stereo not drawn) [malic acid, 2-hydroxybutane-1,4-dioic acid] as the compound, how does the “antioxidant properties based on the screen tests” value (from here on “antioxidant properties based”) [1, 3] read?
**A.** antioxidant substances

**Q.** With `O=C(O)c1ccccc1O` [Salicylic Acid, 2-hydroxybenzoic acid, reference compound] as the compound, how does the “effect on skin plumpness or thickness (in words)” value (forearm skin; topical application on forearm skin) read?
**A.** decreased instead of increasing skin thickness

**Q.** What does the source list for `O=C(O)C(O)CO` (stereo not drawn) [glyceric acid, 2,3-dihydroxypropanoic acid]?
**A.** lips plumpness (eyelids, lips, skin; [4]): more plump; plumping of skin (eyelids, lips, skin; [4]): plumping of skin was detectable; skin of the upper arms appearance (eyelids, lips, skin; [4]): diminished crepe paper appearance; upper eyelids droop and fullness (eyelids, lips, skin; [4]): diminished droop and enhanced fullness

**Q.** Which “antioxidant properties based” value [1, 3] does the source give for `CC1(C)COC(=O)C1O` (stereo not drawn) [pantolactone] here?
**A.** antioxidant substances

**Q.** For `CC(=O)NC1CCSC1=O` (racemic) [N-Acetyl-DL-homocysteine Thiolactone], which “% Increase Over Control (%) (skin thickness)” value (shortened to “% Increase Over Control (%)”) (forearm skin; 5% lotion, twice daily on forearm skin, 3 weeks, control = opposite forearm, one subject) is on record?
**A.** 13% and 65%

**Q.** With `CC(O)C(=O)O` (racemic) [DL-Lactic Acid, 2-hydroxypropanoic acid] as the compound, how does the “% Increase Over (summary of increased skin thickness)” value (forearm skin) read?
**A.** 17-42%

**Q.** For `O=C1O[C@H]([C@H](O)CO)C(O)=C1O` [isoascorbic acid, D-erythro-hex-2-enonic acidr-lactone], which “antioxidant properties based” value [1, 3] is on record?
**A.** antioxidant substances

**Q.** With `CCC(=O)N[C@H]1C(O)O[C@H](CO)[C@@H](O)[C@@H]1O` (stereo partly drawn) [N-Propanoyl-D-glucosamine] as the compound, how does the “appearance of treated forearm skin when lifted” value (forearm skin; 10% solution twice daily, at the end of treatment (6 to 9 weeks), untreated forearm still loose and relatively thin) read?
**A.** more firm, smooth and plump when lifted

**Q.** What about the “increase in skin thickness of treated forearm” value (shortened to “increase in skin thickness”) (forearm skin; 10% solution twice daily, person one, after 4 weeks, untreated forearm no change) of the same compound?
**A.** 8%

**Q.** What about the “increase in skin thickness” value (forearm skin; 10% solution twice daily, person one, after 6 weeks, untreated forearm no change) of the same compound?
**A.** 23%

**Q.** And the “increase in skin thickness” value (forearm skin; 10% solution twice daily, person one, after 9 weeks, untreated forearm no change)?
**A.** 28%

**Q.** And the “increase in skin thickness” value (forearm skin; 10% solution twice daily, person two, after 4 weeks, untreated forearm no change)?
**A.** 13%

**Q.** What about the “increase in skin thickness” value (forearm skin; 10% solution twice daily, person two, after 6 weeks) of the same compound?
**A.** 27%

**Q.** And the “increase in skin thickness” value (forearm skin; 10% solution twice daily, person, after 5 weeks, untreated forearm no change)?
**A.** 19%

**Q.** What about the “increase in skin thickness” value (forearm skin; 10% solution twice daily, person, after 8 weeks) of the same compound?
**A.** 33%

**Q.** With `O=C(O)[C@H](O)[C@@H](O)[C@H](O[C@@H]1O[C@H](CO)[C@H](O)[C@H](O)[C@H]1O)[C@H](O)CO` [Maltobionic acid, maltobionic acid] as the compound, how does the “skin fullness and plumping” value (eyelids, lips, skin; 20% solution twice daily applied prior to continued glyceric acid 14% cream, same subject, after five weeks) read?
**A.** marked enhancement of skin fullness and plumping

**Q.** For `CC(C)(O)C(=O)O` [Methyllactic Acid, 2-methyl-2-hydroxypropanoic acid], which “% Increase Over (summary of increased skin thickness)” value (forearm skin) is on record?
**A.** 14-20%

**Q.** For `O=C(O)[C@H](O)[C@@H](O)[C@H](O[C@@H]1O[C@H](CO)[C@H](O)[C@H](O)[C@H]1O)[C@H](O)CO` [Lactobionic Acid, lactobionic acid], which “% Increase Over (summary of increased skin thickness)” value (forearm skin) is on record?
**A.** 5-58%

**Q.** And the “% Increase Over Control (%)” value (forearm skin; Conc. 8%, twice daily on forearm skin, 3 months, control = opposite forearm, subject)?
**A.** 26%

**Q.** And the “% Increase Over Control (%)” value (forearm skin; Conc. 20%, twice daily on forearm skin, 4 months, control = opposite forearm, subject)?
**A.** 10%

**Q.** And the “glans penile augmentation and foreskin thickness (in words)” value (penis)?
**A.** glans penile augmentation had occurred, as well as increased thickness of foreskin

**Q.** What about the “color of fresh banana peels” value ([2]; after 72 hours, control in water dark tan at 24 to 72 hours) of the same compound?
**A.** changed in color to tan

**Q.** What about the “color of fresh banana peels” value ([2]; period of 24 hours, control in water tan within 6 hours) of the same compound?
**A.** remained white-yellowish

**Q.** And the “antioxidant property by anthralin and hydroquinone test methods” value [1]?
**A.** moderate antioxidant

**Q.** Which results are given for `O=C1O[C@H](CO)[C@@H](O)[C@H](O)[C@H]1O` [D-Gluconolactone]?
**A.** % Increase Over (summary of increased skin thickness) (forearm skin): 7-19%; size of treated right breast (breasts; 15% lotion twice daily, person, after 6 weeks, untreated left breast no change): noticeable increase in the size of their right breast; plumpness and firmness of treated right breast compared to left breast (breasts; 15% lotion twice daily, person, at the end of 3 months): increased in plumpness and firmness; plumpness and firmness of both breasts (breasts; 15% lotion, both breasts treated, at the end of another 3 months (6 month treatment period)): substantially increased in plumpness and firmness

**Q.** Which “% Increase Over (summary of increased skin thickness)” value (forearm skin) does the source give for `O=C(O)CO` [Glycolic Acid, 2-hydroxyethanoic acid] here?
**A.** 11-43%

**Q.** Which “antioxidant properties based” value [1] does the source give for `O=C(O)CC(C(=O)O)C(O)C(=O)O` (stereo not drawn) [isocitric acid] here?
**A.** antioxidant substances

**Q.** With `CC(=O)N[C@@H](CS)C(=O)O` [N-Acetyl-L-cysteine] as the compound, how does the “antioxidant properties based” value [1, 3] read?
**A.** antioxidant substances
